37 compounds from PubChem BioAssay AID652019 (Molecular Libraries Program, Specialized Chemistry Center, …, 2013) can be followed below.

Structures are written as SMILES. Activity calls are given as the source filed them.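 Rule for the calls: active = compound whose activity held up on retesting over a range of doses, giving a fitted IC50; inactive = the rest.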

The test deals with E. coli EV36, T7 phage lysis inhibition, OD600. The experiment in a line: blocking T7-induced lysis of EV36 cultures – OD600, set 6, selectivity assay for bacterial capsule biogenesis inhibitor project, dose response (AID 652019).
As to `Cc1nc2ccc(C(=O)Nc3ccncc3F)cc2s1`, the IC50 was > 50 µM (inactive).
Consider `O=C(O)c1ccc2ncsc2c1`, for which the IC50 is > 50 µM (inactive).
The figure for `CC(C)(C)OC(=O)Nc1nc2ccc(C(=O)Nc3ccncc3)cc2s1` is > 50 µM (inactive).
As for `Cc1cc(NC(=O)c2ccc3nc(NC(=O)OC(C)(C)C)sc3c2)ccn1`, the figure is 0.49 µM; as for `CC(C)(C)OC(=O)Nc1nc2ccc(C(=O)Nc3ccnc(Cl)c3)cc2s1`, 0.49 µM; as for `Cc1nc2ccc(C(=O)Nc3cnccc3NC(=O)OC(C)(C)C)cc2s1`, > 50 µM (inactive).
As for `Nc1cnccc1NC(=O)c1ccc2ncsc2c1`, the IC50 was > 50 µM (inactive).
On to `CC(C)(C)OC(=O)Nc1nc2ccc(C(=O)Nc3ccncc3Br)cc2s1`, for which the IC50 is > 50 µM (inactive).
Regarding `Cc1nc2ccc(C(=O)Nc3ccncc3)cc2s1`, the IC50 is 2.54 µM.
On to `Cc1cnccc1NC(=O)c1ccc2ncsc2c1`, for which the IC50 was 3.58 µM.
In the case of `CC(C)(C)OC(=O)Nc1ccc(NC(=O)c2ccc3nc(NC(=O)OC(C)(C)C)sc3c2)cn1`, the IC50 was > 50 µM (inactive).
The figure for `Cc1nc2ccc(C(=O)Nc3ccnc(F)c3)cc2s1` is > 50 µM (inactive).
As for `O=C(Nc1ccncc1F)c1ccc2ncsc2c1`, the IC50 was 3.31 µM.
As to `Cc1cnccc1NC(=O)c1ccc2nc(N3CCCC3)sc2c1`, the IC50 is > 50 µM (inactive).
The figure for `O=C(Nc1ccncc1)c1ccc2nc(N3CCCC3)sc2c1` is > 50 µM (inactive); for `O=C(Nc1ccnc(Cl)c1)c1ccc2nc(N3CCCC3)sc2c1` it is > 50 µM (inactive); for `CC(C)(C)OC(=O)Nc1ccc(NC(=O)c2ccc3nc(N4CCCC4)sc3c2)cn1` it is > 50 µM (inactive).
As for `O=C(Nc1ccncc1F)c1ccc2nc(N3CCCC3)sc2c1`, the figure is > 50 µM (inactive); as for `Cc1nc2ccc(C(=O)Nc3ccncc3Br)cc2s1`, > 50 µM (inactive); as for `Cc1cnccc1NC(=O)c1ccc2nc(N)sc2c1`, > 50 µM (inactive).
For the compound `CC(C)(C)OC(=O)Nc1cnccc1NC(=O)c1ccc2ncsc2c1`, the IC50 is > 50 µM (inactive).
As for `Nc1ccncc1`, the figure is > 50 µM (inactive).
As for `CC(C)(C)OC(=O)Nc1nc2ccc(C(=O)Nc3ccnc(Br)c3)cc2s1`, the figure is 3.66 µM.
For the compound `O=C(Nc1ccnc(Br)c1)c1ccc2nc(N3CCCC3)sc2c1`, the IC50 was > 50 µM (inactive).
The figure for `Cc1cc(NC(=O)c2ccc3nc(N4CCCC4)sc3c2)ccn1` is > 50 µM (inactive); for `COc1cc(NC(=O)c2ccc3nc(C)sc3c2)ccn1` it is 3.96 µM.
`CC(C)(C)OC(=O)Nc1nc2ccc(C(=O)Nc3ccnc(F)c3)cc2s1`: the IC50 is 1.16 µM.
The figure for `Cc1cnccc1NC(=O)c1ccc2nc(NC(=O)OC(C)(C)C)sc2c1` is > 50 µM (inactive).
With `COc1cc(NC(=O)c2ccc3nc(NC(=O)OC(C)(C)C)sc3c2)ccn1`, the IC50 was > 50 µM (inactive).
The figure for `COc1cc(NC(=O)c2ccc3nc(N4CCCC4)sc3c2)ccn1` is > 50 µM (inactive).
Take `Nc1nc2ccc(C(=O)Nc3ccncc3)cc2s1`: the IC50 was > 50 µM (inactive).
As for `Nc1nc2ccc(C(=O)Nc3ccncc3F)cc2s1`, the figure is > 50 µM (inactive); as for `Cc1nc2ccc(C(=O)Nc3ccncc3C)cc2s1`, > 50 µM (inactive); as for `O=C(Nc1ccncc1Br)c1ccc2nc(N3CCCC3)sc2c1`, > 50 µM (inactive).
As to `O=C(Nc1ccncc1Br)c1ccc2ncsc2c1`, the IC50 is > 50 µM (inactive).
`CC(C)(C)OC(=O)Nc1cnccc1NC(=O)c1ccc2nc(N)sc2c1`: the IC50 was > 50 µM (inactive).
For `COc1cc(NC(=O)c2ccc3nc(N)sc3c2)ccn1`, the IC50 was 0.94 µM.

A word on the IC50: it is the concentration that inhibits the measured activity by half.
